The values that follow come from patent US20260028343A1, “Substituted Imidazopyrazine Compounds as Ligand Directed Degraders of IRAK3” (Celgene Corporation, priority 2022, published 2026).

In this test the target is T1, IRAK3 (Homo sapiens, UniProt Q9Y616).
T1 construct: IRAK Endogenous HTRF Degradation Assay; endogenous in cells
T1 sequence (Q9Y616 1-596): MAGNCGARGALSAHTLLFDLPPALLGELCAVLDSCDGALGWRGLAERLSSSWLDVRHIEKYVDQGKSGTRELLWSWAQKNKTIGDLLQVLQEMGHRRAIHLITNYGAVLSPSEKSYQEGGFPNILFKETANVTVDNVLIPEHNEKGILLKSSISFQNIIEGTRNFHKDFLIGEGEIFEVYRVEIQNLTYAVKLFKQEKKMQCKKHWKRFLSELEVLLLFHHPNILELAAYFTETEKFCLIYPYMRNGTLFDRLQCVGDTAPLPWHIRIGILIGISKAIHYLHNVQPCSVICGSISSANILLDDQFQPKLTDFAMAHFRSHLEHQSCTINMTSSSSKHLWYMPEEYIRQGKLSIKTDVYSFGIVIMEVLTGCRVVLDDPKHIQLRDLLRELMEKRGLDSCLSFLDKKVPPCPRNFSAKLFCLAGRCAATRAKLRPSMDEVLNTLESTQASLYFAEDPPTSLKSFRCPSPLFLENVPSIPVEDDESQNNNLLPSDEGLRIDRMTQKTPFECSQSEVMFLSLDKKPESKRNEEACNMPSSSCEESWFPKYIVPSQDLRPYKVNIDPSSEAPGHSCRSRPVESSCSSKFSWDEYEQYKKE
Briefly: IRAK3 Biochemical Binding Assay (LanthaScreen Eu Kinase Binding). Particulars: TR-FRET tracer displacement, 1 hour at room temperature. On the procedure: The LanthaScreen® Eu Kinase Binding assay was performed as described by the vendor (ThermoFisher Scientific Waltham, MA). Briefly, 100× solutions of compound were prepared in DMSO via serial dilution of the 10 mM stock solution in a 384-well reagent plate using 3-fold intervals to achieve final concentrations. 1 μL of the compound dilution series were added to the corresponding wells of a 384-well reagent plate containing 32.3 μL of 1× buffer (50 mM HEPES pH 7.4, […], 1 mM EGTA, 0.01% Brij-35). 5 μL of the buffer diluted compounds were transferred to the corresponding wells of a 384-well assay plate. 5 μL of 3× tracer was transferred to each well of the assay plate for a final tracer concentration of 10 nM. Finally, 5 μL of the 3× Eu-Anti-GST and IRAK3 mix was transferred to each well for a final concentration of 2 nM and 10 nM respectively. Reactions were allowed to incubate for 1 hour at room temperature. TR-FRET signal of the interaction (λex340/λem 665/λem 615) was read at room temperature with a delay time of 100 μs and an integration time of 200 μs using an Envision plate reader. Background corrected emission signal ratios at each compound concentration were used to calculate percentage of inhibition (% Inhibition). Plots of % Inhibition versus inhibitor concentrations were fit according to a dose-response equation (Eq. 1) to generate IC50 and Hill slope values using Dotmatics software (Dotmatics, Bishops Stortford, Hertfordshire, England).
Using these assays, IC50, Dmax, EC50, and DC50 values of the following compounds were determined. Dmax is defined as the maximum percent degradation achieved and DC50 is the concentration at which 50% degradation is achieved.

Each structure is given as a SMILES string.

With `Cc1cccc(-c2cnc(Nc3ccc(N4CCN(C(=O)COc5cccc6c5C(=O)N(C5CCC(=O)NC5=O)C6=O)CC4)cc3)c3nccn23)c1` (stereo not drawn) [Compound 1, 2-(2,6-Dioxopiperidin-3-yl)-4-(2-oxo-2-(4-(4-((5-(m-tolyl)imidazo[1,2-a]pyrazin-8-yl)amino)phenyl)piperazin-1-yl)ethoxy)isoindoline-1,3-dione], the IC50 (as a rule, the point on the concentration scale where inhibition reaches its midpoint) stood at 278 nM. For `Cc1cccc(-c2cnc(Nc3ccc(N4CCN(C(=O)CCCNC(=O)COc5cccc6c5C(=O)N(C5CCC(=O)NC5=O)C6=O)CC4)cc3)c3nccn23)c1` (stereo not drawn) [Compound 2, 2-((2-(2,6-Dioxopiperidin-3-yl)-1,3-dioxoisoindolin-4-yl)oxy)-N-(4-oxo-4-(4-(4-((5-(m-tolyl)imidazo[1,2-a]pyrazin-8-yl)amino)phenyl)piperazin-1-yl)butyl)acetamide] the value was 30 nM; for `Cc1cccc(-c2cnc(Nc3ccc(N4CCN(C(=O)CCOCCNC(=O)COc5cccc6c5C(=O)N(C5CCC(=O)NC5=O)C6=O)CC4)cc3)c3nccn23)c1` (stereo not drawn) [Compound 3, 2-((2-(2,6-Dioxopiperidin-3-yl)-1,3-dioxoisoindolin-4-yl)oxy)-N-(2-(3-oxo-3-(4-(4-((5-(m-tolyl)imidazo[1,2-a]pyrazin-8-yl)amino)phenyl)piperazin-1-yl)propoxy)ethyl)acetamide], 84 nM. `Cc1cccc(-c2cnc(Nc3ccc(N4CCN(C(=O)COc5ccc6c(c5)C(=O)N(C5CCC(=O)NC5=O)C6=O)CC4)cc3)c3nccn23)c1` (stereo not drawn) [Compound 4, 2-(2,6-Dioxopiperidin-3-yl)-5-(2-oxo-2-(4-(4-((5-(m-tolyl)imidazo[1,2-a]pyrazin-8-yl)amino)phenyl)piperazin-1-yl)ethoxy)isoindoline-1,3-dione]: the IC50 was found to be 128 nM. On to `Cc1cccc(-c2cnc(Nc3ccc(N4CCN(C(=O)CCCNC(=O)COc5ccc6c(c5)C(=O)N(C5CCC(=O)NC5=O)C6=O)CC4)cc3)c3nccn23)c1` (stereo not drawn) [Compound 5, 2-((2-(2,6-Dioxopiperidin-3-yl)-1,3-dioxoisoindolin-5-yl)oxy)-N-(4-oxo-4-(4-(4-((5-(m-tolyl)imidazo[1,2-a]pyrazin-8-yl)amino)phenyl)piperazin-1-yl)butyl)acetamide], for which the 50% inhibitory concentration (IC50) is 71 nM.

For the molecule `Cc1cccc(-c2cnc(Nc3ccc(N4CCN(C(=O)CCOCCNC(=O)COc5ccc6c(c5)C(=O)N(C5CCC(=O)NC5=O)C6=O)CC4)cc3)c3nccn23)c1` (stereo not drawn) [Compound 6, 2-((2-(2,6-Dioxopiperidin-3-yl)-1,3-dioxoisoindolin-5-yl)oxy)-N-(2-(3-oxo-3-(4-(4-((5-(m-tolyl)imidazo[1,2-a]pyrazin-8-yl)amino)phenyl)piperazin-1-yl)propoxy)ethyl)acetamide], the IC50 worked out at 83 nM. For `Cc1cccc(-c2cnc(Nc3ccc(N4CCN(CCNC(=O)COc5ccc6c(c5)C(=O)N(C5CCC(=O)NC5=O)C6=O)CC4)cc3)c3nccn23)c1` (stereo not drawn) [Compound 7, 2-((2-(2,6-Dioxopiperidin-3-yl)-1,3-dioxoisoindolin-5-yl)oxy)-N-(2-(4-(4-((5-(m-tolyl)imidazo[1,2-a]pyrazin-8-yl)amino)phenyl)piperazin-1-yl)ethyl)acetamide] the value was 33 nM. The result for `Cc1cccc(-c2cnc(Nc3cnn(C4CCN(CCNC(=O)COc5ccc6c(c5)C(=O)N(C5CCC(=O)NC5=O)C6=O)CC4)c3)c3nccn23)c1` (stereo not drawn) [Compound 8, 2-((2-(2,6-Dioxopiperidin-3-yl)-1,3-dioxoisoindolin-5-yl)oxy)-N-(2-(4-(4-((5-(m-tolyl)imidazo[1,2-a]pyrazin-8-yl)amino)-1H-pyrazol-1-yl)piperidin-1-yl)ethyl)acetamide] reads less than 0.5 nM; that for `Cc1cccc(-c2cnc(Nc3cccc(C4CCN(CCNC(=O)COc5ccc6c(c5)C(=O)N(C5CCC(=O)NC5=O)C6=O)CC4)c3)c3nccn23)c1` (stereo not drawn) [Compound 9, 2-((2-(2,6-Dioxopiperidin-3-yl)-1,3-dioxoisoindolin-5-yl)oxy)-N-(2-(4-(3-((5-(m-tolyl)imidazo[1,2-a]pyrazin-8-yl)amino)phenyl)piperidin-1-yl)ethyl)acetamide], 214 nM. Take `Cc1cccc(-c2cnc(Nc3ccc(C4CCN(CCNC(=O)COc5ccc6c(c5)C(=O)N(C5CCC(=O)NC5=O)C6=O)CC4)cc3)c3nccn23)c1` (stereo not drawn) [Compound 10, 2-((2-(2,6-Dioxopiperidin-3-yl)-1,3-dioxoisoindolin-5-yl)oxy)-N-(2-(4-(4-((5-(m-tolyl)imidazo[1,2-a]pyrazin-8-yl)amino)phenyl)piperidin-1-yl)ethyl)acetamide]: the IC50 came to 236 nM. As to `Cc1cccc(-c2cnc(Nc3cccc(N4CCN(CCNC(=O)COc5ccc6c(c5)C(=O)N(C5CCC(=O)NC5=O)C6=O)CC4)c3)c3nccn23)c1` (stereo not drawn) [Compound 11, 2-((2-(2,6-Dioxopiperidin-3-yl)-1,3-dioxoisoindolin-5-yl)oxy)-N-(2-(4-(3-((5-(m-tolyl)imidazo[1,2-a]pyrazin-8-yl)amino)phenyl)piperazin-1-yl)ethyl)acetamide], the IC50 came to 5340 nM. For `Cc1cccc(-c2cnc(Nc3cnn(C4CCN(C5CCC6(CC5)CCN(C(=O)c5ccc7c(c5)CN(C5CCC(=O)NC5=O)C7=O)CC6)CC4)c3)c3nccn23)c1` (stereo not drawn) [Compound 12, 3-(1-Oxo-5-(9-(4-(4-((5-(m-tolyl)imidazo[1,2-a]pyrazin-8-yl)amino)-1H-pyrazol-1-yl)piperidin-1-yl)-3-azaspiro[5.5]undecane-3-carbonyl)isoindolin-2-yl)piperidine-2,6-dione] the value was 2 nM.
